Results published in US20240108645A1, “SENESCENCE AND SENESCENCE ASSOCIATED SECRETORY PHENOTYPE” (Metro Biotech NSW Pty Ltd, priority 2013, published 2024).
Entries after “also recorded” stand apart in the source; their conditions may differ. One block for each molecule: values may come before it.

What was measured:
p16^INK4a [1] = assay: Imiquimod-induced skin senescence in p16^LUC mice, bioluminescence imaging; type: in vivo, SKH1 hairless p16^LUC mice
Excerpt: In order to study the effects of NAD^+ agonists on cellular senescence associated with the skin, which is associated with inflammation, senescence was induced in a luciferase knockin (p16^LUC) mouse (Burd et al. (2013) Cell 152: 340-351) using topical application of Imiquimod. Imiquimod (IMQ) is an immune modulator topically applied for skin conditions such as melanoma and genital warts. The side effect of IMQ is severe, painful inflammation and aging of the skin.
P16^LUC mice contain the firefly luciferase cDNA inserted into the translational start site of the endogenous p16^INK4a gene. Conditions which induce expression of the p16^INK4a gene, and therefore induce cellular senescence, also induce expression of firefly luciferase in p16^LUC mice (Burd et al. […] Cell 152:340-351; Sorrentino et al. (2014) The Journal of Clinical Investigation, 124(1): 169-351).
The following formulations were prepared: • 1. Cream carrier (containing no IMQ) (control or ctrl); • 2. IMQ cream (containing 5% IMQ) mixed with 10% water (IMQ); and • 3. IMQ cream (containing 5% IMQ) mixed with […] NMN (equating to 5% NMN) (IMQ+NMN).
Each of 1, 2 and 3 were applied daily to the rump of SKH1 hairless p16^LUC mice for 4 days. The animals were subjected to bioluminescence imaging as a readout for senescence. Areas of fluorescence are indicated as darkened areas in FIG. 4.

C2C12 myoblasts [2] = assay: SA-β-Gal staining of C2C12 myoblasts incubated with various agents; type: cell-based
Protocol: The ability of NAD^+ agonists to reduce senescence associated with various agents was tested by inclubating C2C12 myoblasts with various agents in the presence or absence of NMN or apigenin, and the cells subsequent stained as mentioned above for SA-β-Gal activity. The following agents were tested: [table]

3T3-L1 adipocytes [3] = assay: SA-β-gal chromogenic staining of dexamethasone treated 3T3-L1 adipocytes; type: cell-based; settings: 5 days; dexamethasone 1, 0.5, 0.1 or 0.01 mg/ml; 1 mM NMN, 25 mM apigenin
Protocol: To further investigate the effects of NAD^+ agonists on dexamethasone induced senescence, 3T3-L1 adipocytes were treated for 5 days with ethanol (control), or 1 mg/ml, 0.5 mg/ml, 0.1 mg/ml or 0.01 mg/ml of dexamethasone in combination with either DMSA, 1 mM NMN, 25 mM apigenin, or 1 mM NMN and 25 mM apigenin and subjected to senescence associated beta-galactosidase staining according to the chromogenic protocol of Debacq-Chainiaux F et al Nature Protocols 2009.

C2C12 myoblasts [4] = assay: SA-β-Gal activity in C2C12 myoblasts by flow cytometry with C12FDG; type: cell-based
Protocol: To determine the ability of NAD^+ agonists to prevent or reduce senescence associated with treatment with corticoids, C2C12 myoblasts were assayed for SA-β-Gal activity following contact with vehicle, NMN, apigenin, dexamethasone, dexamethasone and NMN, and dexamethasone and apigenin. SA-β-Gal activity was determined using the fluorogenic substrate, C12FDG, by flow cytometry (protocol of Debacq-Chainiaux et al. Nature Protocols 2009). FIG. 7A: […] FIGS. 7B and 7C: […] SA-β-Gal activity was decreased with NMN and/or apigenin. All data are presented as the mean value. * p<0.05, **** p<0.0001, using two-way ANOVA multiple comparisons test.

[5] = Blood glucose and free water (echoMRI) in dexamethasone treated rats; type: in vivo, Sprague-Dawley rats; settings: one day after injection
Protocol: To study the effects of NAD^+ agonists on senescence associated with treatment with corticoids, 250 g Sprague-Dawley rats were administered daily intraperitoneal injections of the following formulations for 3 days: • 1. Vehicle: saline • 2. Dexamethasone: 0.8 mg/kg of animal dexamethasone sodium phosphate • 3. Dexamethasone+NMN: 0.8 mg/kg body weight dexamethasone sodium phosphate and 1.5 g/kg body weight NMN.
After 3 days, blood glucose was determined.
Free water was assessed by echMRI one day after injection of the above formulations.

3T3-L1 adipocytes [6] = assay: Intracellular lipid content (oil red o) of 3T3-L1 adipocytes treated with antiretroviral agents; settings: for intracellular lipid content (oil red o, absorbance at 544 nm): 24 hr
Protocol: The ability of NAD^+ agonists to reduce or prevent lipodystrophy associated with anti-retroviral compounds was assessed. The ability of NMN to prevent or reduce lipodystrophy was tested by determining the lipid content of 3T3-L1 adipocytes treated with a vehicle, or the antiretroviral agent stavudine, either alone or in combination with NMN.
3T3-L1 adipocytes were treated for 24 hr with the HIV antiretroviral compound stavudine (10 nM) in the presence or absence of NMN (1 mM). Intracellular lipid content was assessed using oil red o staining, which was quantified by reading absorbance at 544 nm. Error bars: SD.
In order to further test the ability of NAD^+ agonists to reduce lipodystrophy associated with antiretroviral agents, 3T3-L1 adipocytes were treated for 24 hr with various antiretroviral compounds (30 μM) in the presence or absence of NMN (1 mM) or apigenin (25 μM). Intracellular lipid content was assessed using oil red o staining, which was quantified by reading absorbance at 544 nm.

p16^INK4A [7] = assay: Doxorubicin-induced senescence in p16^LUC mice, bioluminescence/CT imaging; type: in vivo; settings: doxorubicin alone 1 mg/kg i.p.; imaging 24 hours after treatment
Protocol: Vehicle control: 10% DMSO in PBS administered intraperitoneally; • 2. Apigenin: administered in diet at 500 mg/kg of food in addition to vehicle control administered i.p.; • 3. […] Apigenin administered in chow diet at 500 mg/kg of food, and doxorubicin administered at 1 mg/kg body weight i.p. Apigenin was administered 4 days prior to administration of doxorubicin. The animals were subjected to bioluminescence/CT imaging (Spectrum-CT instrument, PerkinElmer) as a readout for senescence 24 hours after treatment was completed. Areas of luminescence are shown as lightened areas in FIG. 5 and are indicated by an arrow.

[8] = Body weight after doxorubicin; type: in vivo, male C57BL6 mice; settings: doxorubicin 10 mg/kg i.p. single dose at day 8
Protocol: Vehicle control: 10% DMSO in PBS administered intraperitoneally; • 2. Apigenin: administered in diet at 500 mg/kg of diet, in addition to vehicle control administered i.p.; • 3. […] Apigenin administered in diet of 500 mg/kg of diet, and doxorubicin administered at 10 mg/kg body weight i.p. Apigenin was administered 8 days prior to administration of a single dose of doxorubicin. Body weight was assessed during the course of the experiment as a read-out of general health and malaise, the results of which are shown in FIG. 11.

CD38 = target: T1, CD38 (Homo sapiens, UniProt P28907); settings: in vitro; Esande et al. (2013) Diabetes; cited from earlier work
T1 sequence (P28907 1-300): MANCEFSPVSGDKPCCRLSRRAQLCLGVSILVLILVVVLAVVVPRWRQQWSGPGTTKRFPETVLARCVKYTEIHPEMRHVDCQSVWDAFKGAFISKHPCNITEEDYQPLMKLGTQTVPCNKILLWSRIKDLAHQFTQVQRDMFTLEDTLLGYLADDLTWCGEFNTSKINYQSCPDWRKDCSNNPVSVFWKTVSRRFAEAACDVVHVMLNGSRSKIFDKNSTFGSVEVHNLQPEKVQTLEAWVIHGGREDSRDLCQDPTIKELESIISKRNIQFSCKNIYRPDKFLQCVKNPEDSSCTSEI

p16^IN14a induction (bioluminescence) (p16^INK4a [1]; IMQ cream (5% IMQ) alone, applied daily to rump for 4 days): showed areas of p16^IN14a induction
Compound: CC(C)Cn1cnc2c(N)nc3ccccc3c21 [IMQ, Imiquimod, reference compound]

Compound: NC(=O)c1ccc[n+]([C@@H]2O[C@H](COP(=O)([O-])O)[C@@H](O)[C@H]2O)c1 [NMN, nicotinamide mononucleotide]
extent of senescence (proportion of cells stained blue, SA-β-Gal activity) (C2C12 myoblasts [2]; agents of the table of b212 with vs without apigenin or NMN): reduce the extent of senescence induced by the agents tested | extent to which the cells undergo senescence (C2C12 myoblasts [2]; co-administration with AZT, 3TC, zalcitabine, efavirenze, lopinavir, ritonavir, nevirapine, tipranavir, tenofovir, invirase vs agent alone): reduces the extent to which the cells undergo senescence | extent to which the cells undergo senescence (C2C12 myoblasts [2]; co-administration with PPARγ agonist rosiglitazone vs rosiglitazone alone): reduces the extent to which the cells undergo senescence | extent to which the cells undergo senescence (C2C12 myoblasts [2]; co-administration with antiprotozoal agent quinacrine vs quinacrine alone): reduces the extent to which the cells undergo senescence | extent to which the cells undergo senescence (C2C12 myoblasts [2]; co-administration with each of the chemotherapeutic agents listed in b109 vs agent alone): reduces the extent to which the cells undergo senescence | extent to which the cells undergo senescence (C2C12 myoblasts [2]; co-administration with xanthine oxidase inhibitor allopurinol vs allopurinol alone): reduces the extent to which the cells undergo senescence | extent to which the cells undergo senescence (C2C12 myoblasts [2]; co-administration with zolendronate vs zolendronate alone): reduces the extent to which the cells undergo senescence | SA-β-gal staining (blue cells), dexamethasone induced senescence (3T3-L1 adipocytes [3]): reduced SA-β-gal staining; also recorded: reduce or prevent senescence induced by dexamethasone | SA-β-Gal activity (FIG. 7A) (C2C12 myoblasts [4]; 48 hours, NMN 1 mM, both ethanol vehicle and dexamethasone (0.1 μg/ml) treated groups): significantly reduced SA-β-Gal activity | SA-β-Gal activity (FIG. 7B) (C2C12 myoblasts [4]; 72 hours, dexamethasone sodium phosphate 250 nM or PBS, NMN 1 mM or apigenin 25 uM): decreased | SA-β-Gal activity (FIG. 7C) (C2C12 myoblasts [4]; 96 hours, dexamethasone sodium phosphate 250 nM or PBS, NMN 1 mM or apigenin 25 uM): decreased | percentage of cells which exhibited SA-β-Gal activity following treatment with dexamethasone (C2C12 myoblasts [4]; summary of FIGS. 7A-7C): reduced the percentage of cells which exhibited SA-β-Gal activity | free water (echoMRI) ([5]; dexamethasone sodium phosphate 0.8 mg/kg plus NMN 1.5 g/kg i.p., vs dexamethasone): reversed this effect | lipodystrophy (intracellular lipid content, oil red o) (3T3-L1 adipocytes [6]; NMN 1 mM, cells treated 24 hr with 30 μM AZT, 3TC, stavudine, Efavirenz, Lopinavir, Ritonavir, Tipranavir): reduced lipodystrophy | intracellular lipid content (oil red o, absorbance at 544 nm) (3T3-L1 adipocytes [6]; stavudine 10 nM and NMN 1 mM, vs NMN and vehicle): no reduction in lipid content | erythema, scaling and redness of skin (p16^INK4a [1]; IMQ and NMN topical vs IMQ): less erythema, scaling and redness | p16^IN14a induction (bioluminescence) (p16^INK4a [1]; IMQ cream (5% IMQ) mixed with NMN (5% NMN), topical daily for 4 days, vs IMQ): little or no signs of p16^IN14a induction

Compound: C[C@@H]1C[C@H]2[C@@H]3CCC4=CC(=O)C=C[C@]4(C)[C@@]3(F)[C@@H](O)C[C@]2(C)[C@@]1(O)C(=O)CO [dexamethasone, reference compound]
free water (echoMRI) ([5]; dexamethasone sodium phosphate 0.8 mg/kg i.p.): significantly reduced the amount of free water

p16^INK4A induction (bioluminescence) (p16^INK4A [7]): large areas of bioluminescence
Compound: COc1cccc2c1C(=O)c1c(O)c3c(c(O)c1C2=O)C[C@@](O)(C(=O)CO)C[C@@H]3O[C@H]1C[C@H](N)[C@H](O)[C@H](C)O1 [doxorubicin, reference compound]
body weight [8]: permanent loss of body weight for at least 40 days

Compound: O=c1c(O)c(-c2ccc(O)c(O)c2)oc2cc(O)cc(O)c12 [quercetin, 2-(3,4-dihydroxyphenyl)-3,5,7-trihydroxy-4H-chromen-4-one, reference compound]
inhibition of CD38 activity (CD38): inhibitors of CD38 activity in vitro

Compound: Cc1cn([C@H]2C=C[C@@H](CO)O2)c(=O)[nH]c1=O [stavudine, 2′,3′-didehydro-2′,3′-dideoxythymidine, reference compound]
intracellular lipid content (oil red o, absorbance at 544 nm) (3T3-L1 adipocytes [6]; stavudine 10 nM alone, vs vehicle): reduction in lipid content
